Measured values taken from patent US8716183B2, “Control of aquatic weeds with endothall and ALS-inhibiting agent” (SePro Corporation, priority 2008, dated 2014).

Assays:
hydrilla [1] = assay: Penoxsulam+endothall under multiple exposures to hydrilla, dry weight and Colby analysis; assay type: in vivo, Hydrilla verticillata; details: for Mean dry weight of hydrilla: penoxsulam 0.02, endothall 0.68 mg/L a.e.; for OBSERVED RESPONSE: penoxsulam 0.02, endothall 0.68 mg/L; for hydrilla biomass compared to untreated controls (LSD, p = 0.05): penoxsulam 0.02 or endothall 0.68 mg/L a.e. alone, 3 to 48 day exposures
Description: Apical sections (12 to 15 cm in length) of hydrilla, collected from Florida, were planted into small pots (13.5 cm length×3.75 cm diameter) containing Wallace Farm® topsoil amended with 14-14-14 slow release Osmocote® fertilizer (˜2.5 g Osmocote/kg soil) on 16 Oct. 2008. Approximately 5 to 7 cm of the apical section extended above the sediment at planting, and a sand cap was placed over the potting soil (˜2 cm deep). Plants were then transferred to a 12 L acrylic tanks filled with well water. Tanks were maintained in a growth room with 14:10 h photoperiod at 26° C. Plants were allowed to grow for 8 days before the following treatments were initiated in triple replicate: • A) Untreated controls • B) Penoxsulam at 0.02 mg/L • C) Endothall at 0.68 mg/L a.e. • D) Simultaneous treatment • a. Penoxsulam 0.02 mg/L+endothall at 0.68 mg/L • i. Exposure times • 1. 3 days • 2. 6 days • 3. 12 days • 4. 24 days • 5. 48 days (static) • E) Sequential treatment • a. Penoxsulam 0.02 mg/L, add 0.68 mg/L endothall 24 days later—static exposure to combination • b. Endothall at 0.68 mg/L, add 0.02 mg/L penoxsulam 24 days later—static exposure to combination • c. Penoxsulam 0.02 mg/L, add 0.68 mg/L endothall 12 days later—12 day exposure to combination • d. Endothall at 0.68 mg/L, add 0.02 mg/L penoxsulam 12 days later—12 day exposure to combination • e. Penoxsulam 0.02 mg/L, add 0.68 mg/L endothall 6 days later—6 day exposure to combination • f. Endothall at 0.68 mg/L, add 0.02 mg/L penoxsulam 6 days later—6 day exposure to combination
Endothall was formulated as Aquathol K® (4.23 #/gallon dipotassium salt, or 3#/gallon a.e.); penoxsulam was formulated as Galleon SC® (2#/gallon active ingredient). All concentrations are expressed as a.e. for endothall. At each exposure time, plants were removed from treatments and placed in a tank with fresh water containing no herbicide (including controls) to remove the aqueous exposure and allow for recovery.
Plants were harvested at 48 days after initial treatment. At harvest, plants were rinsed free of algae and placed in paper sacks in a drying oven for 4 days at 70° C. temperature. Mean dry weights were determined and means separated using least significant differences. Difference between observed and expected responses was determined to evaluate potential interactions using methods reported by Colby (Colby S. R. 1967. Weeds. 15:20-22).

hydrilla [2] = assay: Imazamox+endothall under static exposure to hydrilla, GR50 and Isobole analysis; assay type: in vivo, Hydrilla verticillata; details: harvested 34 days after treatment, n = 3, endothall as a.e., combinations as total ppb
Description: (§1) Single apical meristems of hydrilla, collected from Florida, were planted into small pots (13.5 cm length×3.75 cm diameter) containing Wallace Farm® topsoil amended with 14-14-14 slow release Osmocote® fertilizer (˜2.5 g Osmocote/kg soil) on 4 Nov. 2008. Approximately 5 to 7 cm of the apical section extended above the sediment at planting, and a sand cap was placed over the potting soil (˜2 cm deep). Plants were then transferred to a 12 L acrylic tanks filled with well water. Tanks were maintained in a growth room with 14:10 h photoperiod at 26° C. Plants were allowed to establish growth for 10 days before treatment.
(§2) Treatments were replicated three times in a completely randomized design. […] All concentrations are expressed as a.e. for endothall.
(§3) All above ground biomass was harvested 34 days after treatment. Biomass was dried to constant moisture at 70° C., and dry weights were determined. Data were subjected to regression analysis using Sigma Plot software, and a GR50 was determined (concentration causing a 50% reduction in dry weight). All data were analyzed for synergism/antagonism using the Isobole analysis at the 95% confidence level (estimated using linear interpolation from 95% confidence bands) (refer to Example 2 for more information on Isobole analysis).

hydrilla [3] = assay: Penoxsulam+endothall under static exposure to hydrilla, GR50 and Isobole analysis; assay type: in vivo, Hydrilla verticillata; details: harvested 55 days after treatment, n = 3, endothall as a.e., combinations as total ppb
Description: as §1, with “on 18 Jul.” for “on 4 Nov.”, “for 14” for “for 10”
as §2
as §3, with “55” for “34”, “(Berenbaum, M. C. 1989, Pharmacological Reviews. 41:93-141; Streibig, J. C. 2003, Assessment of herbicide effects: http://www.ewrs.org/et/images/, Herbicide interaction.pdf). […]” for “(refer to Example 2 for more information on Isobole analysis).”

hydrilla [4] = details: cited from earlier work
[5] = tested on: hydrilla (Hydrilla verticillata); assay: Field Study 1: hydrilla control in a 6 acre lake divided into three zones; assay type: in vivo; details: 21 days after treatment
Experimental: A 6 acre somewhat rectangular-shaped lake was divided into three 2 acre zones for this testing. A 2-acre test site (Zone 1), located on the northern one-third of the lake, was treated with a penoxsulam plus endothall combination in order to evaluate control of the exotic aquatic weed, hydrilla (Hydrilla verticillata). Within a 50 gallon spray tank system powered by a 5.5 Hp Honda motor, 0.523 gallons Galleon SC (a commercially available penoxsulam formulation) and 12.7 gallons Aquathol K (a commercially available endothall formulation) were added to 36.78 gallons of water. The herbicide combination mixture delivered an application dose of 15 parts per billion penoxsulam and 0.71 ppm a.e. endothall to Zone 1. This herbicide mixture was evenly injected using a trailing hose over the airboat bow throughout the 2 acre Zone 1. On the day of treatment, Zone 1 contained approximately 90% hydrilla coverage, with growth near or at the water surface.
The remaining 4 acres (both Zone 2 (central one-third) and Zone 3 (southern one-third)) of the lake were treated with 15 ppb penoxsulam alone on the same day. Both Zones 2 and 3 contained approximately 90-95% hydrilla coverage at that time.
Twenty one days following the initial treatment, the hydrilla was assessed for herbicidal injury within Zones 1, 2, and 3. […] Approximately 10% of the original plant volume remained near the water's surface; the balance had fallen to the lake bottom. The same was true for a 1 acre area contiguous down lake to Zone 1 moving into Zone 2. All remaining hydrilla plants suspended in the water column within the 3 acres were expressing severe injury.
On this date, 0.71 ppm a.e. endothall (12.7 gallons Aquathol K) was applied to Zone 3 in order to evaluate contact herbicidal efficacy 21 days following a penoxsulam treatment.

[6] = 3-d exposure, harvested 48 days after initial treatment, n = 3
[7] = 6-d exposure (f/b: second agent added 6 days later, 6 day exposure to combination), harvested at 48 days
[8] = 12-d exposure (f/b: second agent added 12 days later, 12 day exposure to combination), harvested at 48 days
[9] = 24-d exposure (f/b: second agent added 24 days later, static exposure to combination), harvested at 48 days
[10] = 48-d (static) exposure, harvested at 48 days
[11] = Zone 3 and southern portion of Zone 2, 15 ppb penoxsulam alone

Compound: O=C(O)[C@@H]1[C@H](C(=O)O)[C@H]2CC[C@@H]1O2 [Endothall, 3,6-endoxohexahydrophthalic acid]
- Mean dry weight of hydrilla (hydrilla [1]; [6]): 2.24b
- Mean dry weight of hydrilla (hydrilla [1]; [7]): 2.61ab
- Mean dry weight of hydrilla (hydrilla [1]; [8]): 2.72c
- Mean dry weight of hydrilla (hydrilla [1]; [9]): 2.14bc
- Mean dry weight of hydrilla (hydrilla [1]; [10]): 1.62b
- OBSERVED RESPONSE (hydrilla [1]; exposure 3 days): 64% of control
- OBSERVED RESPONSE (hydrilla [1]; exposure 6 days): 62% of control
- OBSERVED RESPONSE (hydrilla [1]; exposure 12 days): 48% of control
- OBSERVED RESPONSE (hydrilla [1]; exposure 24 days): 47% of control
- OBSERVED RESPONSE (hydrilla [1]; exposure 48 days): 35% of control
- hydrilla biomass compared to untreated controls (LSD, p = 0.05) (hydrilla [1]): reduced hydrilla biomass compared to untreated controls at all exposure periods, except 3 and 6-day
- GR50 (concentration causing a 50% reduction in dry weight) (hydrilla [2]): 520 ppb
- GR50 (concentration causing a 50% reduction in dry weight) (hydrilla [3]): 309 ppb
- hydrilla control (hydrilla [4]; 0.71 ppm a.e. endothall partial area/spot treatment, general): essentially no hydrilla control
- time before hydrilla plants defoliate and drop toward the lake bottom (hydrilla [4]; 1.4 to 3.5 ppm a.e. endothall, typical, dependent on plant maturity): 2-6 weeks
- contact with hydrilla required to achieve effective control (hydrilla [4]; Netherland et al. 1991): less than 72 hours

Compound: COCc1cnc(C2=NC(C)(C(C)C)C(=O)N2)c(C(=O)O)c1 (stereo not drawn) [Imazamox]
- GR50 (concentration causing a 50% reduction in dry weight) (hydrilla [2]): 680 ppb

Compound: COc1cnc(OC)n2nc(NS(=O)(=O)c3c(OCC(F)F)cccc3C(F)(F)F)nc12 [Penoxsulam, 2-(2,2-difluoroethoxy)-6-trifluoromethyl-N-(5,8-dimethoxy[1,2,4]triazolo[1,5c]pyrimidin-2-yl)benzenesulfonamide]
- Mean dry weight of hydrilla (hydrilla [1]; [6]): 4.01a
- Mean dry weight of hydrilla (hydrilla [1]; [7]): 3.97a
- Mean dry weight of hydrilla (hydrilla [1]; [8]): 3.68ab
- Mean dry weight of hydrilla (hydrilla [1]; [9]): 3.24ab
- Mean dry weight of hydrilla (hydrilla [1]; [10]): 2.41ab
- OBSERVED RESPONSE (hydrilla [1]; exposure 3 days): 115% of control
- OBSERVED RESPONSE (hydrilla [1]; exposure 6 days): 95% of control
- OBSERVED RESPONSE (hydrilla [1]; exposure 12 days): 97% of control
- OBSERVED RESPONSE (hydrilla [1]; exposure 24 days): 72% of control
- OBSERVED RESPONSE (hydrilla [1]; exposure 48 days): 52% of control
- hydrilla biomass compared to untreated controls (LSD, p = 0.05) (hydrilla [1]): not significantly different from untreated controls
- hydrilla control [5, 11]: no control was observed
- hydrilla remaining near the water's surface [5, 11]: Approximately 90%
- herbicidal injury of hydrilla ([5]; Zones 2 and 3, 15 ppb penoxsulam alone): slight but expected penoxsulam injury
- GR50 (concentration causing a 50% reduction in dry weight) (hydrilla [3]): 12 ppb
- time before severe injury is expressed (hydrilla [4]; penoxsulam treated hydrilla, typical): about 60 days
